# Data from patent US20130316042A1, “ENHANCED RELEASE OF LIPOPHILIC INGREDIENTS FROM CHEWING GUM WITH HYDROCOLLOIDS” (CADBURY ADAMS MEXICO, S. DE R.L. DE C.V., priority 2010, published 2013).
# Experiment: logP (octanol/water) at 25° C.
# Assay type: physicochemical
# Method: In one aspect, the lipophilic ingredient is one having a partition coefficient between octanol and water (log P (octanol/water) at 25° C.) of greater than or equal to 1.5, specifically greater than or equal to 2.0, more specifically greater than or equal to 2.5, yet more specifically greater than or equal to 3.0, still yet more specifically greater than or equal to 3.5, and more specifically greater than or equal to 4.0. The partition coefficient of material can be determined experimentally or calculated using commercially available software.
SMILES,logP,logP (octanol/water) at 25° C.
"CNC(=O)C(C)(C(C)C)C(C)C [N,2,3-trimethyl-2-propan-2-ylbutanamide]",2.48,
"CCNC(=O)C(CC)(C(C)C)C(C)C [N-ethyl-2,2-diisopropylbutanamide]",3.6,
"CC1CCC(C(C)C)C(O)C1 (stereo not shown) [menthol, reference compound]",3.4,
"C/C=C/C=C\CC/C=C/C(=O)NCC(C)C [spilanthol, N-isobutyl-2E,6Z,8E-decatrienamide]",3.4,

# The remaining lines, values ahead:
logP,logP (octanol/water) at 25° C.,SMILES
3.81,,"CCNC(=O)C1CC(C)CCC1C(C)C (stereo not shown) [N-ethyl-p-menthane-3-carboxamide (WS-3), N-ethyl-p-menthane-3-carboxamide]"
3.38,,CCOC(=O)CNC(=O)C1CC(C)CCC1C(C)C (stereo not shown) [ethyl 2-[(5-methyl-2-propan-2-ylcyclohexanecarbonyl)amino]acetate]
,4.12,CC(C)[C@@H]1CC[C@@H](C)C[C@H]1OC(=O)CCCC(=O)O [monomenthyl glutarate]
